Laboratory results from US9409904B2, “Compounds and compositions for use in augmentation of glucose” (YISSUM RESEARCH DEVELOPMENT COMPANY OF THE HEBREW …, priority 2011, dated 2016).
Entries after “also recorded” stand apart in the source; their conditions may differ.

Legend:
L6 myotubes [1] = assay: [3H]-2-deoxy-D-glucose (dGlc) uptake assay in L6 myotubes; format: cell-based
Procedure: The effect of the various derivatives on the rate of glucose uptake in L6 myotubes was investigated. […] The abundance of GLUT1 and GLUT4 in the plasma membranes of L6 myotubes was determined in cells expressing GLUT-1myc or GLUT-4myc, as described before. […] In addition, the effect of compounds on the glucose—stimulated insulin secretion (GSIS) was investigated.
L6 myotubes were maintained as described in [21]. All experiments were conducted on fully differentiated myotubes.
The rate of [^3H]dGlc uptake in myotubes, in the absence or presence of insulin, was determined as described in [21]. […] […] The cultures were then rinsed 3 times with PBS at room temperature and incubated with PBS, pH 7.4, containing 0.1 mM dGlc and 1.0 μCi/ml [^3H]dGlc for 5 minutes at room temperature. At the end of the assay, the myotubes were lysed in 0.1% (w/v) SDS in water and taken for liquid scintillation.

AMPK = assay: Thr172 phosphorylation of AMPK in L6 myotubes, Western blot of whole cell lysates; format: cell-based
Procedure: The effect of the various derivatives on the rate of glucose uptake in L6 myotubes was investigated. […] The abundance of GLUT1 and GLUT4 in the plasma membranes of L6 myotubes was determined in cells expressing GLUT-1myc or GLUT-4myc, as described before. […] In addition, the effect of compounds on the glucose—stimulated insulin secretion (GSIS) was investigated. Whole cell lysates were prepared as previously described with some minor modifications: the lysis buffer contained 50 mM Tris-HCl, pH 7.5, 1 mM EDTA, 1 mM EGTA, 1 mM Na3VO4, 150 mM NaCl, 50 mM NaF, 10 mM sodium-glycerophosphate, 5 mM sodium pyrophosphate, and 1 mM PMSF, supplemented with 0.1% (v/v) NP-40, 0.1% (v/v) 2-β-mercaptoethanol, and protease inhibitor cocktail (1:100 dilution). The cells were washed by ice-cold PBS, and 1 ml of lysis buffer was then added and incubated at 4° C. for 40 minutes. The resulting cell lysates were centrifuged at 8,700 g×30 minutes at 4° C. and the resulting supernatant fractions were separated and kept at −20° C. until used. Protein content in the supernatant was determined according to Bradford, using a BSA standard dissolved in the same buffer. […] Samples for Western blot analyses of GLUT1 and GLUT4 were prepared as described in [22]. The proteins were separated on 10% SDS-PAGE and Western blot analyses performed using antibodies according to our previously established protocols.

L6 myotubes [2] = assay: Cytotoxic effects in L6 myotube cultures; format: cell-based; conditions: above 100 μM
GLUT4myc = assay: Colorimetric determination of surface GLUT4myc in L6 myotubes; format: cell-based
Procedure: The colorimetric detection of surface GLUT4myc or GLUT1myc in L6 myotubes was performed as described in [7]. Briefly, cultured myotubes were incubated with rabbit anti-C-Myc antibody (1:200 dilution), washed and fixed with 3% formaldehyde, and further interacted with goat HRP-conjugated anti-rabbit IgG (1:2000 dilution). Following the washes, a solution of OPD was added, and the culture plates were taken for absorbance measurement at 492 nM to estimate the relative abundance of GLUT1myc or GLUT4myc on the plasma membrane of the myotubes. The GLUT1myc and GLUT4myc L6 cell cultures were the courtesy of Dr. A. Klip, Hospital for Sick Children (Toronto, ON, Canada).
The capacity of compound 34 to increase the rate of glucose uptake by increasing GLUT4 content in the plasma membrane of myotubes was tested. […] The cells expressing GLUT1myc or GLUT4myc were treated with 25 μM of 34 or DMSO as described above. At the end of the incubation, the cultures were taken for immunodetection of surface GLUT1myc (open bars) or GLUT4myc (black bars), as described herein above.

GLUT1 = assay: Total GLUT1 content in whole cell lysates of L6 myotubes, Western blot; format: cell-based
Procedure: (§1) Whole cell lysates were prepared as previously described with some minor modifications: the lysis buffer contained 50 mM Tris-HCl, pH 7.5, 1 mM EDTA, 1 mM EGTA, 1 mM Na3VO4, 150 mM NaCl, 50 mM NaF, 10 mM sodium-glycerophosphate, 5 mM sodium pyrophosphate, and 1 mM PMSF, supplemented with 0.1% (v/v) NP-40, 0.1% (v/v) 2-β-mercaptoethanol, and protease inhibitor cocktail (1:100 dilution). The cells were washed by ice-cold PBS, and 1 ml of lysis buffer was then added and incubated at 4° C. for 40 minutes. The resulting cell lysates were centrifuged at 8,700 g×30 minutes at 4° C. and the resulting supernatant fractions were separated and kept at −20° C. until used. Protein content in the supernatant was determined according to Bradford, using a BSA standard dissolved in the same buffer. Aliquots (5-60 μg of protein) were mixed with the sample buffer [62.5 mM Tris-HCl, pH 6.8, 2% (w/v) SDS, 10% (v/v) glycerol, 50 mM DTT, and 0.01% (w/v) bromophenol blue], heated at 95° C. for 5 minutes. Samples for Western blot analyses of GLUT1 and GLUT4 were prepared as described in [22]. The proteins were separated on 10% SDS-PAGE and Western blot analyses performed using antibodies according to our previously established protocols.

GLUT4 = assay: Total GLUT4 content in whole cell lysates of L6 myotubes, Western blot; format: cell-based
Procedure: as §1

diabetic KKAy mice [3] = assay: Blood glucose level in diabetic KKAy mice after subcutaneous injection; format: in vivo; conditions: for reduction of blood glucose: 75 mg/kg s.c. twice daily in sesame oil
Excerpt: (§2) The effect of the various ethoxybenzo-thiazol derivatives on the blood glucose level in diabetic KKAy mice was investigated. The in vivo antihyperglycemic effect of the lead compound was investigated in hyperglycemic and hyperinsulinemic KKAy mice, an established animal model for T2DM, after subcutaneous injections. Venous blood samples from small tail clips were taken for glucose determination. Finally, to investigate the effect of the lead compound on whole body glucose disposal in the mice we performed standard IP-GTT tests following an overnight fast.
Diabetic male KKAy mice (8 to 12-week old, 20-25 g) were purchased from The Jackson Laboratory (Bar Harbor, Me.). The animals were routinely kept in 12-h light/dark cycles and provided with food and water ad libitum. Blood glucose levels at sacrifice ranged between 17-25 mmol/l. The ethics committee (IACUC) of the Hebrew University of Jerusalem approved the study protocol for animal welfare. The Hebrew University of Jerusalem is an AAALAC international accredited institution.
(§3) The antihyperglycemic potential of 34 was investigated in an animal model of diabetes. Test compound was injected subcutaneously (75 mg per kg body weight, suspension in sesame oil, twice daily) to diabetic KKAy mice; control mice received the vehicle only. The blood glucose levels at day zero, 20.8±0.9 and 22.3±1.3 mM for the control and 34-treated groups, respectively, were taken as the reference 100% values in FIG. 4A. […] It should be noted, however, that despite the marked antihyperglycemic effects of 34, normoglycemia was not reached. To better evaluate the potential of 34, the glucose tolerance of treated KKAy mice was evaluated using a standard IP-GTT. The mice were treated with 34 as described above for two days, after which IP-GTT was performed after an overnight fast, as described. […] IP-GTT was performed following an overnight fast in mice treated with 34 or oil, as described herein above. […] The cells were grown in standard RPMI1640 complete culture medium, treated with 10 μM compound 20 and incubated for the indicate time periods. At the end of incubations the cells were taken for a standard GSIS assay described herein.

diabetic KKAy mice [4] = assay: Intraperitoneal glucose tolerance test (IP-GTT) in KKAy mice; format: in vivo
Excerpt: as §2
A standard IP-GTT test was performed on mice after an overnight fast. Glucose in saline was injected intraperitoneally (1.5 g/kg body weight). Venous blood samples from small tail clips were taken for glucose determination using a glucometer (FreeStyle Freedom, Abbott Diabetes Care, Alamada, Calif.).
as §3

CCC1SC(N)=NC1=O (stereo not shown) [Compound 3, 2-amino-5-ethylthiazol-4(5H)-one]
rate of glucose uptake in L6 myotubes (result in words) (L6 myotubes [1]): increase; also recorded: augmented | time of maximal glucose uptake stimulatory effect (L6 myotubes [1]; 100 μM): ≤ 5 h | rate of glucose uptake compared to vehicle (DMSO) treated control (L6 myotubes [1]; 100 μM, basal rate = 100%): 131.4%±6.8% | activity at 100 µM (L6 myotubes [1]; Rattus norvegicus, L6, 100 μM, Mean ± SD (n = 3), Table 1, read-out: Effect on glucose uptake [100 μM] in L6 myotubes (%)): 131 ± 6.8% | maximal effective concentration, glucose uptake (L6 myotubes [1]; dose response, 5 h (3) or 12 h (4, 15)): 100 µM | time of return of Thr172 phosphorylation to the basal hypo-phosphorylated level (AMPK; 100 μM): 3 h | Thr172 phosphorylation in AMPK / AMPK activation (result in words) (AMPK; L6 myotubes): increased | time of maximal (peak) Thr172 phosphorylation in AMPK (AMPK; incubation time): 40 min | cytotoxic effects (L6 myotubes [2]): cytotoxic effects

CCOc1ccc2nc(SCc3nc4ccccc4s3)sc2c1 [Compound 34, 2-((benzothiazol-2-ylmethyl)thio)-6-ethoxybenzothiazole]
minimal effective concentration, glucose uptake (L6 myotubes [1]): 25 µM | persistence of stimulatory effect on glucose uptake (L6 myotubes [1]): up to 24 hours | rate of glucose uptake in L6 myotubes (result in words) (L6 myotubes [1]): increase; also recorded: markedly augmented | stimulatory effect on glucose uptake in the presence of wortmannin or Akt/PKB inhibitor (L6 myotubes [1]; 100 nM wortmannin or 100 nM Akt/PKB inhibitor added 30 min before): PI3K- and Akt/PKB-independent manner; also recorded: remained unaltered | increase of rate of glucose uptake, combined effect with insulin (L6 myotubes [1]; 25 μM of 34 (5 hours) plus insulin 100 nM (last 20 minutes)): 148%±29% | increase of rate of glucose uptake (L6 myotubes [1]; 25 μM of 34, last 5 hours, serum free, 23.0 mM D-glucose, without insulin): 75%±17% | increase of rate of glucose uptake (L6 myotubes [1]; under similar experimental conditions (5 hours)): 2.5 fold | time to significant Thr172 phosphorylation of AMPK (AMPK; incubation time): ≤ 1 h | period required to exert action on GLUT4myc translocation (GLUT4myc): 5 h | abundance of GLUT4myc in the plasma membrane (GLUT4myc; 25 μM of 34, insulin): induces GLUT-4; also recorded: increased | total content of GLUT1 in myotubes (GLUT1): Neither compound altered | total content of GLUT4 in myotubes (GLUT4): Neither compound altered | normoglycemia (diabetic KKAy mice [3]; 75 mg/kg s.c. twice daily): not reached | reduction of blood glucose (diabetic KKAy mice [3]; day 1): ~30% | reduction of blood glucose (diabetic KKAy mice [3]; day 2): ~45% | reduction of blood glucose (diabetic KKAy mice [3]; day 3): ~50% | glucose tolerance (result in words) (diabetic KKAy mice [4]; 75 mg/kg s.c. twice daily, two days): improved glucose tolerance; also recorded: significantly improved | IP-GTT area under the curve (AUC) (diabetic KKAy mice [4]; two days of treatment, overnight fast, glucose 1.5 g/kg i.p.): 753.6±142.2 mmol glucose/l/min | improvement of total body glucose clearance (diabetic KKAy mice [4]; two-day treatment): 40%-50%
